Experimental data taken from patent US4371534A, “N4-Substituted tetrahydro-1,2,4-oxadiazin-5-one derivatives having anticonvulsive activity and pharmaceutical compositions containing them” (Richter Gedeon Vegyeszeti Gyar RT., priority 1980, dated 1983).
Where two headings read alike, the source gives them in different places.

Experiments:
[1] = tested on: mice (pentetrazole-induced clonic and tonic, extensor spasm); assay: Inhibition of spasm induced by pentetrazole (PTT); format: in vivo, CFLP (LATI) mice; settings: Mus musculus, po, 1 h, 20 mg/kg p.o., 125 mg/kg pentetrazole s.c., one hour
Experimental: The pharmaceutical activity of the new compounds according to the invention was tested by conventional animal tests. Tests were performed on CFLP (LATI) mice of both sexes weighing 18 to 22 g. each, in groups of 10. Test compounds were suspended in a 5% aqueous "Tween 80" solution and the suspension was administered orally, through a probe. When testing anticonvulsive activity 20 mg./kg. doses, while in the tests concerning neurotoxic activity 80 mg/kg. doses were employed. The induced effect was measured one hour after administration by the following methods: (b) inhibition of spasm induced by pentetrazole (PTT) According to the method of Cr. N. Everett and R. K. Richards [J. Pharmacol. Exp. Therap. 81, 402 (1944)] 125 mg./kg. of pentatrazole (pentamethylene tetrazole) were administrated to the animals subcutaneously. One hour after administration the animals were observed. Absence of the clonic spasm (Kl) and the tonic, extensor spasm of lower limbs (TE) was considered a protection due to the administration of test compounds.

[2] = tested on: mice (tonic, extensor spasm of the lower limbs); assay: Maximum electroshock (MES), anticonvulsive activity; format: in vivo, CFLP (LATI) mice; settings: Mus musculus, po, 1 h; 20 mg/kg p.o., one hour after administration; corneal electrode 20 mA, 0.2 sec; absence of tonic extensor spasm = protection
Experimental: The pharmaceutical activity of the new compounds according to the invention was tested by conventional animal tests. Tests were performed on CFLP (LATI) mice of both sexes weighing 18 to 22 g. each, in groups of 10. Test compounds were suspended in a 5% aqueous "Tween 80" solution and the suspension was administered orally, through a probe. When testing anticonvulsive activity 20 mg./kg. doses, while in the tests concerning neurotoxic activity 80 mg/kg. doses were employed. The induced effect was measured one hour after administration by the following methods: (a) Maximum electroshock (MES): According to the method of E. A. Swinyard et al. [J. Pharmacol. 106, 319 (1952)] test animals were shocked by a corneal electrode (20 mA, 0.2 sec.). On the stimulation 100% of the control animals reacted by a tonic, extensor spasm of the lower limbs. Absence of this phenomena was considered a protection due to the treatment.

[3] = tested on: mice (muscle coordination); assay: Neurotoxic activity: muscle coordination (RR) on rotating rod; format: in vivo, CFLP (LATI) mice; settings: 80 mg/kg p.o., one hour after administration; animals falling from rotating rod within 120 seconds, percentage of control animals
Experimental: (§1) The pharmaceutical activity of the new compounds according to the invention was tested by conventional animal tests. Tests were performed on CFLP (LATI) mice of both sexes weighing 18 to 22 g. each, in groups of 10. Test compounds were suspended in a 5% aqueous "Tween 80" solution and the suspension was administered orally, through a probe. When testing anticonvulsive activity 20 mg./kg. doses, while in the tests concerning neurotoxic activity 80 mg/kg. doses were employed. The induced effect was measured one hour after administration by the following methods:
Muscle coordination (RR) on mice
Change of the coordinated muscular movement was tested according to W. J. Kinnard and C. F. Carr [Brit. J. Pharmacol, 121, 354 (1957)], on a rotating rod (diameter: 20 mm., frequency: 12/min.). Normal trained animals are able to remain on the rotating rod for about 120 seconds.

mice = assay: Acute toxicity (LD50); format: in vivo; settings: p.o., single doses, evaluation after 14 days, probit analysis
Experimental: as §1
Toxicity of the compounds was examined by administration of various single doses. Evaluation was made 14 days after administration. The LD50 -values were calculated on the basis of the number of animals that died in 14 days by probite analysis, by means of a TPA/101 computer.

[4] = absence of clonic spasm, read-out: PTT Cl
[5] = absence of tonic, extensor spasm of lower limbs, read-out: PTT TE

| Compound | responders at 20 mg/kg [1, 4] | responders at 20 mg/kg [1, 5] | responders at 20 mg/kg [2] | RR (muscle incoordination) [3] | LD50 (mice) |
| --- | --- | --- | --- | --- | --- |
| CCCCCCN1C(=O)CON(C(C)=O)C1c1ccccc1 (centres unmarked) [Example 14] | 0% | 40% | 0% | 0% | – |
| CC(=O)N1OCC(=O)N(CCl)C1c1ccccc1 (centres unmarked) [Example 7, 2-Acetyl-3-phenyl-4-chloromethyl-tetrahydro-1,2,4-oxadiazin-5-one] | 0% | 0% | 40% | 40% | – |
| CC(=O)N1OCC(=O)N(CO)C1c1ccccc1 (centres unmarked) [Example 5, 2-Acetyl-3-phenyl-4-hydroxymethyl-tetrahydro-1,2,4-oxadiazin-5-one] | 0% | 40% | 60% | 20% | – |
| CCN1C(=O)CON(C(C)=O)C1c1ccccc1 (centres unmarked) [Example 4, 2-Acetyl-3-phenyl-4-ethyl-tetrahydro-1,2,4-oxadiazin-5-one] | 0% | 20% | 0% | 20% | – |
| CC(=O)N1OCC(=O)N(C)C1c1ccccc1 (centres unmarked) [Example 10] | 0% | 20% | 40% | 20% | – |
| CCC1(c2ccccc2)NC(=O)N(C)C1=O (centres unmarked) [3-methyl-5-ethyl-5-phenylhydantoine, reference compound] | 0% | 50% | 10% | 50% | – |
| CC(=O)OCN1C(=O)CON(C(C)=O)C1c1ccccc1 (centres unmarked) [Example 6, 2-Acetyl-3-phenyl-4-acetoxymethyl-tetrahydro-1,2,4-oxadiazin-5-one] | 0% | 60% | 70% | 40% | – |
| O=C1NC(=O)C(c2ccccc2)(c2ccccc2)N1 [diphenylhydantoine, reference compound] | 0% | 80% | 90% | 70% | 279 mg/kg |
| CC(=O)N1OCC(=O)N(COC(=O)c2ccccc2)C1c1ccccc1 (centres unmarked) [Example 18] | 0% | 70% | 40% | 40% | – |
| COc1cc(C(=O)OCN2C(=O)CON(C(C)=O)C2c2ccccc2)cc(OC)c1OC (centres unmarked) [Example 19] | 0% | 0% | 30% | 0% | – |
